From PubChem BioAssay (NCI)
“And” between values parts separate entries of the source, which are not always exact repeats. Identical values can stand only once.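 48-hour exposure; five concentrations; linearly interpolated endpoints. Abbreviation: GI50, concentration required for 50% inhibition of growth. Definition used: TGI = concentration required for complete inhibition of growth.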

Legend:
Assay in all cases: growth of human tumour cells (NCI), 48 h
[1] = system: EKVX NSCLC
[2] = system: HCT-116 colon
[3] = system: KM12 colon
[4] = system: NCI-H460 lung
[5] = system: OVCAR-5 ovarian
[6] = system: OVCAR-3 ovarian
[7] = system: KM20L2 colon
[8] = system: DLD-1 colon
[9] = system: K-562 leukemia
[10] = system: SNB-75 CNS
[11] = system: MCF7 breast

| Compound | TGI [1] | TGI [2] | TGI [3] | TGI [4] | TGI [5] | TGI [6] | TGI [7] | TGI [8] | TGI [9] | TGI [10] | GI50 [1] | TGI [11] | GI50 [11] | GI50 [9] |
| --- | --- | --- | --- | --- | --- | --- | --- | --- | --- | --- | --- | --- | --- | --- |
| COc1ccc(C2=NN(c3ccccc3)C[N+](c3ccc(OC)cc3)=N2)cc1 | > 100 µM | > 100 µM | 54.7 µM | > 100 µM | 70 µM | 46 µM | > 100 µM | > 100 µM | 63.1 µM |  |  |  |  |  |
| CC1(c2ccc[n+](Cc3ccccc3)c2)OCCO1 | > 100 µM | > 100 µM | > 100 µM | > 100 µM | > 100 µM | > 100 µM | > 100 µM | > 100 µM | > 100 µM | > 100 µM |  |  |  |  |
| COc1ccc(C2N(NC(=O)c3ccncc3)C(=O)CS2(=O)=O)cc1F (configuration not stated) |  | > 100 µM | > 100 µM | > 100 µM | > 100 µM |  |  | > 100 µM |  | > 100 µM |  |  |  |  |
| CCOC(=O)Cc1cc(OC)c(OC)cc1/C(Cl)=C(\C=O)c1ccc(OC)c(OC)c1 | 71.7 µM | 29 µM |  | 17.9 µM |  | 28.1 µM | 35.7 µM | 48.8 µM | 56.5 µM | > 100 µM |  |  |  |  |
| COc1cc2c(cc1OC)C(Cl)C(c1ccc(Cl)c(Cl)c1)=C2Cl (configuration not stated) | 44.7 µM |  |  | 16 µM |  | 15.2 µM | 25.7 µM |  | > 100 µM | 23.9 µM |  |  |  |  |
| CCOP(=O)(OCC)C1CC(n2cc(C)c(=O)[nH]c2=O)OC1CO (configuration not stated) | > 100 µM | > 100 µM | > 100 µM | > 100 µM | > 100 µM | > 100 µM |  |  | > 100 µM | > 100 µM | 44.1 µM and > 100 µM | > 100 µM |  |  |
| COc1cc(C(C)c2cc3c(cc2OCCO)OCO3)cc(OC)c1OC (configuration not stated) | > 100 µM | > 100 µM |  | > 100 µM | > 100 µM |  |  | > 100 µM | > 100 µM | 4.34 µM |  |  |  |  |
| COC(=O)c1cc2ccc(OC(C)=O)c(OC(C)=O)c2cn1 | 38.1 µM | 32.7 µM | 33.6 µM | 39.7 µM | 34.2 µM | 30.9 µM |  |  | 7.32 µM and 3.75 µM | 42 µM |  | 6 µM and 35.5 µM | 16.7 µM | 1860 nM |
| CC(C)(Oc1ccc(Cl)cc1)C(=O)N(C(=O)N1CCC(c2ccccc2)CC1)c1ccccc1 | > 100 µM | > 100 µM | > 100 µM | > 100 µM | > 100 µM | > 100 µM |  |  | > 100 µM | > 83.2 µM |  | > 100 µM |  |  |
| N#Cc1ccccc1-c1nc2c3c(c(N)ccc3n1)C(=O)c1ccccc1-2 | > 100 µM | > 100 µM | > 100 µM | > 100 µM | > 100 µM | > 100 µM |  |  | > 100 µM | > 100 µM |  | > 100 µM |  |  |
| CC(=O)Nc1ccc(OC2=CCN(C)CC2)cc1 | > 100 µM | > 100 µM | > 100 µM | > 100 µM | > 100 µM | > 100 µM |  |  | > 100 µM | > 100 µM |  | > 100 µM |  |  |
| CN(C(=O)c1ccco1)C(=S)N1CCN(c2ccccc2)CC1 |  | > 100 µM | > 100 µM | > 100 µM | > 100 µM | > 100 µM | > 100 µM | > 100 µM | > 100 µM | > 100 µM |  |  |  |  |
| COc1ccc(C(=O)Cc2ccc(Br)cc2)cc1OC | > 100 µM | > 100 µM |  | > 100 µM | > 100 µM | > 100 µM | > 100 µM | > 100 µM | > 100 µM | 54.5 µM |  |  |  |  |
